This note sets out measurements from PubChem BioAssay AID270 (DTP/NCI, 2004).

Molecules are shown by their SMILES. Values joined by “and” are separate entries in the source; they are usually repeats but may differ in a detail not shown here. Identical values can stand only once. Records with an inconclusive call do not appear.

For this assay, the system named is BDF1 mice, s.c. Lewis lung carcinoma, T/C %. Briefly: NCI In Vivo Anticancer Drug Screen. Data for tumor model Lewis Lung Carcinoma (subcutaneous) in B6D2F1 (BDF1) mice. Put shortly: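 Readout: survival or tumor size, expressed as treated (T) over vehicle control (C). Transplantable tumor implanted in mice; compound given to the treated group.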
The mark [1] stands for this setting: endpoint: mean tumor weight, dose: 600.0 mg/kg/injection, schedule: Q01DX011 (ip), vehicle: saline, higher = larger tumour.

Consider `O=c1c(O)c(-c2ccccc2)oc2ccccc12`, for which the T/C (endpoint: mean tumor weight, dose: 0.19 mg/kg/injection, schedule: Q01DX011 (ip), vehicle: saline, higher = larger tumour) was 79 % of control; the T/C (endpoint: mean tumor weight, dose: 0.39 mg/kg/injection, schedule: Q01DX011 (ip), vehicle: saline, higher = larger tumour) was 50 % of control; the T/C (endpoint: mean tumor weight, dose: 0.78 mg/kg/injection, schedule: Q01DX011 (ip), vehicle: saline, higher = larger tumour) is 105 % of control; the T/C (endpoint: mean tumor weight, dose: 1.56 mg/kg/injection, schedule: Q01DX011 (ip), vehicle: saline, higher = larger tumour) was 52 % of control and 58 % of control; the T/C (endpoint: mean tumor weight, dose: 3.13 mg/kg/injection, schedule: Q01DX011 (ip), vehicle: saline, higher = larger tumour) was 78 % of control; the T/C (endpoint: mean tumor weight, dose: 6.25 mg/kg/injection, schedule: Q01DX011 (ip), vehicle: saline, higher = larger tumour) is 97 % of control. In addition, the T/C (endpoint: mean tumor weight, dose: 12.5 mg/kg/injection, schedule: Q01DX010 (ip), vehicle: saline, higher = larger tumour) is 67 % of control; the T/C (endpoint: mean tumor weight, dose: 12.5 mg/kg/injection, schedule: Q01DX011 (ip), vehicle: saline, higher = larger tumour) is 103 % of control; the T/C (endpoint: mean tumor weight, dose: 25.0 mg/kg/injection, schedule: Q01DX010 (ip), vehicle: saline, higher = larger tumour) is 82 % of control; the T/C (endpoint: mean tumor weight, dose: 50.0 mg/kg/injection, schedule: Q01DX010 (ip), vehicle: saline, higher = larger tumour) is 104 % of control; the T/C (endpoint: mean tumor weight, dose: 100.0 mg/kg/injection, schedule: Q01DX010 (ip), vehicle: saline, higher = larger tumour) was 83 % of control.
Consider `Nc1ncnc2c1ncn2C1OC(CO)CC1O` (stereo not given), for which the T/C (endpoint: mean tumor weight, dose: 37.0 mg/kg/injection, schedule: Q01DX011 (ip), vehicle: saline, higher = larger tumour) was 101 % of control and the T/C (endpoint: mean tumor weight, dose: 75.0 mg/kg/injection, schedule: Q01DX011 (ip), vehicle: saline, higher = larger tumour) was 86 % of control.
As for `CC(=O)OC1CCC(NC(=O)N(CCCl)N=O)CC1` (stereo not given), the T/C (endpoint: median survival time, dose: 24.0 mg/kg/injection, schedule: Q01DX001 (ip), vehicle: other, higher = longer survival) is 95 % of control.
In the case of `OCC(Br)CBr` (stereo not given), the T/C (endpoint: mean tumor weight, dose: 37.0 mg/kg/injection, schedule: Q01DX011 (ip), vehicle: other, higher = larger tumour) was 97 % of control and the T/C (endpoint: mean tumor weight, dose: 55.0 mg/kg/injection, schedule: Q01DX011 (ip), vehicle: other, higher = larger tumour) is 66 % of control.
As for `CC[C@](O)(C(=O)O)c1cc2n(c(=O)c1CO)Cc1cc3ccccc3nc1-2`, the T/C reads like this: (endpoint: median survival time, dose: 1.0 mg/kg/injection, schedule: Q01DX009 (ip), vehicle: saline, higher = longer survival) 117 % of control; (endpoint: median survival time, dose: 2.0 mg/kg/injection, schedule: Q01DX009 (ip), vehicle: saline, higher = longer survival) 92 % of control.
As to `O=S(=O)(O)c1cc(O)ccc1O`, the T/C runs as follows: (endpoint: mean tumor weight, dose: 133.0 mg/kg/injection, schedule: Q01DX011 (ip), vehicle: saline, higher = larger tumour) 66 % of control; (endpoint: mean tumor weight, dose: 300.0 mg/kg/injection, schedule: Q01DX011 (ip), vehicle: saline, higher = larger tumour) 99 % of control and 119 % of control; under setting [1], 67 % of control.
Take `CC(C)=CCC1=C(O)c2ccccc2C(=O)C1=O`: the T/C is, setting by setting: (endpoint: mean tumor weight, dose: 45.0 mg/kg/injection, schedule: Q01DX011 (ip), vehicle: water, higher = larger tumour) 71 % of control; (endpoint: mean tumor weight, dose: 67.0 mg/kg/injection, schedule: Q01DX011 (ip), vehicle: water, higher = larger tumour) 85 % of control; (endpoint: mean tumor weight, dose: 100.0 mg/kg/injection, schedule: Q01DX011 (ip), vehicle: water, higher = larger tumour) 93 % of control.
`Cn1c(=O)[nH]c2nncnc2c1=O`: the T/C is 108 % of control (endpoint: median survival time, dose: 8.0 mg/kg/injection, schedule: Q01DX009 (ip), vehicle: water, higher = longer survival); 86 % of control (endpoint: median survival time, dose: 16.0 mg/kg/injection, schedule: Q01DX009 (ip), vehicle: water, higher = longer survival); 123 % of control (endpoint: median survival time, dose: 37.5 micrograms/kg/injection, schedule: Q01DX009 (ip), vehicle: water, higher = longer survival); 123 % of control (endpoint: median survival time, dose: 75.0 micrograms/kg/injection, schedule: Q01DX009 (ip), vehicle: water, higher = longer survival); 111 % of control (endpoint: median survival time, dose: 150.0 micrograms/kg/injection, schedule: Q01DX009 (ip), vehicle: water, higher = longer survival); 123 % of control (endpoint: median survival time, dose: 300.0 micrograms/kg/injection, schedule: Q01DX009 (ip), vehicle: water, higher = longer survival).
Consider `CCOC(N)=O`, for which the T/C runs as follows: (endpoint: mean tumor weight, dose: 60.0 mg/kg/injection, schedule: Q01DX011 (ip), vehicle: saline, higher = larger tumour) 119 % of control; (endpoint: mean tumor weight, dose: 100.0 mg/kg/injection, schedule: Q01DX011 (ip), vehicle: saline, higher = larger tumour) 90 % of control; (endpoint: mean tumor weight, dose: 125.0 mg/kg/injection, schedule: Q01DX011 (ip), vehicle: saline, higher = larger tumour) 123 % of control; (endpoint: mean tumor weight, dose: 200.0 mg/kg/injection, schedule: Q01DX011 (ip), vehicle: saline, higher = larger tumour) 60 % of control and 67 % of control and 69 % of control; (endpoint: mean tumor weight, dose: 250.0 mg/kg/injection, schedule: Q01DX011 (ip), vehicle: saline, higher = larger tumour) 62 % of control; (endpoint: mean tumor weight, dose: 400.0 mg/kg/injection, schedule: Q01DX011 (ip), vehicle: saline, higher = larger tumour) 33 % of control and 41 % of control and 56 % of control. In addition, the T/C under setting [1] is 38 % of control.
As for `CC1CCOS(=O)O1` (stereo not given), the T/C reads like this: (endpoint: mean tumor weight, dose: 10.0 mg/kg/injection, schedule: Q01DX011 (ip), vehicle: saline, higher = larger tumour) 66 % of control; (endpoint: mean tumor weight, dose: 20.0 mg/kg/injection, schedule: Q01DX011 (ip), vehicle: saline, higher = larger tumour) 63 % of control; (endpoint: mean tumor weight, dose: 40.0 mg/kg/injection, schedule: Q01DX011 (ip), vehicle: saline, higher = larger tumour) 65 % of control.
As for `CCCCCC[N+](CCCCCC)(CCCCCC)CCCCCC`, the T/C runs as follows: (endpoint: median survival time, dose: 0.75 mg/kg/injection, schedule: Q01DX009 (ip), vehicle: Klucel (hydroxypropylcellulose) (HPC), higher = longer survival) 110 % of control; (endpoint: median survival time, dose: 1.5 mg/kg/injection, schedule: Q01DX009 (ip), vehicle: Klucel (hydroxypropylcellulose) (HPC), higher = longer survival) 91 % of control; (endpoint: median survival time, dose: 3.0 mg/kg/injection, schedule: Q01DX009 (ip), vehicle: Klucel (hydroxypropylcellulose) (HPC), higher = longer survival) 102 % of control.
Regarding `O=C1c2c(Cl)c(Cl)c(Cl)c(Cl)c2C(=O)N1c1nccs1`, the T/C is 62 % of control (endpoint: mean tumor weight, dose: 25.0 mg/kg/injection, schedule: Q01DX011 (ip), vehicle: carboxymethylcellulose (CMC), higher = larger tumour) and 50 % of control (endpoint: mean tumor weight, dose: 50.0 mg/kg/injection, schedule: Q01DX011 (ip), vehicle: carboxymethylcellulose (CMC), higher = larger tumour).
